Measured values from patent publication US20260083708A1, “IL-17 MODULATORS AND USES THEREOF” (NNOCARE PHARMA INC., priority 2024, published 2026).

Assays:
IL-17AA and IL-17RA = target: T1, IL-17AA and IL-17RA (Homo sapiens, UniProt Q16552); assay: Competitive inhibition of human IL-17AA and IL-17RA binding (HTRF); settings: recombinant IL-17AA (His-tag) and IL-17RA (hFc-tag); read-out: IC50 for Inhibiting IL-AA/IL-RA Binding
T1 construct: purchased Sino Biological 12047-H07B (IL-17AA); 10895-H02H (IL-17RA)
T1 sequence (Q16552 24-155): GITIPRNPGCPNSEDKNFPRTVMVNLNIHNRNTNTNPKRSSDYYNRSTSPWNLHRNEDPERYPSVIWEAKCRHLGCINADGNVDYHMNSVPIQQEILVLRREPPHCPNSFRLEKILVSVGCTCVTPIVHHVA
Protocol: Example 42. Competitive Inhibition of Human IL-17AA and IL-17RA Binding
Recombinant IL-17AA (His-tag, Catalog Number 12047-H07B) and IL-17RA (hFc-tag, Catalog Number 10895-H02H) were purchased from Sino Biological. In the experiment, 10 μL of IL-17AA (1 nM) or IL-17RA (1 nM) was added to 10 μL of anti-6His-Tb (0.4 nM, Revvity, Catalog Number 61HISTLF) or anti-human IgG-d2 (1 μg/mL, anti-human IgG-d2, Revvity, Catalog Number 61HFCDAF), respectively and incubated at room temperature for 1 hour. Compounds were serially diluted starting from 10 μM. 5 μL of each compound solution was incubated with 5 μL of a mixture of IL-17AA and anti-6His-Tb at room temperature for 2 hours. After pre-incubation, to which was added 10 μL of a mixture of IL-17RA and anti-human IgG-d2, and incubation was continued for additional 20 minutes. Subsequently, a microplate reader (Envision, PerkinElmer) was used to detect fluorescence intensity at 615 nm and 665 nm, and the ratio of intensity thereof indicates the degree of IL-17AA and IL-17RA interaction. The ratio of intensity in the absence of tested compound was the highest value of binding between IL-17AA and IL-17RA, and the ratio of intensity in the absence of IL-17AA was the lowest value.
(§1) Therefore, the percentage of inhibition of tested compound was calculated as
Experimental results were analyzed using XLfit (IDBS) for 4-parameter nonlinear fitting analysis, to provide the IC50 value for each tested compound (Table 1).

[1] = system: IL-17AA-induced IL-17 signaling pathway; assay: Inhibition of IL-17AA-induced IL-17 signaling pathway in HEK-Blue IL-17 reporter cells (SEAP); type: cell-based; settings: Homo sapiens; HEK-Blue IL-17 cells, IL-17AA 2.5 ng/mL, 20 hours; read-out: IC50 for Inhibiting IL-AA Signaling
Excerpt: Example 43. Inhibition of IL-17AA-Induced IL-17 Signaling Pathway
(§2) Interleukin-17 (IL-17) reporter cell line (HEK-Blue IL-17, InvivoGen, Catalog Number hkb-i117) is created by genetically engineering human IL-17RA/IL-17RC heterodimeric receptor and downstream adapter protein ACT1 into human embryonic kidney 293 cells (HEK293). These cells also express secreted embryonic alkaline phosphatase (SEAP) reporter gene induced by NF-κB and AP-1. Therefore, IL-17AA can activate NF-κB and AP-1 signaling pathways inside the cells by binding to IL-17RA/RC on cell membrane, leading to expression of SEAP protein. After a colorimetric reaction between SEAP protein and Quanti-Blue solution, the absorbance at 620 nm is measured using a microplate reader (BioTek H1M, Agilent, Catalog Number SH1M-SN) to determine IL-17AA-activated signaling pathway.
(§3) In the experiment, HEK-Blue IL-17 cells were cultured at 37° C. under 5% CO2 conditions using the recommended medium from InvivoGen's instruction. Compounds were serially diluted starting from 10 μM. 4 μL of each compound solution was added to 32 μL of cells (10,000 cells) at 37° C. for 1 hour. After pre-incubation, 4 μL of IL-17AA with a final concentration of 2.5 ng/mL (Sino Biological, Catalog Number 12047-HNAS) was added to the cells, and incubation was continued for additional 20 hours. After incubation, 5 μL of cell culture supernatant was added to 45 μL of Quanti-Blue for the colorimetric reaction. The group without tested compound had the highest absorbance at 620 nm, and the group without IL-17AA had the lowest absorbance at 620 nm.
as §1
(§4) Experimental results were analyzed using XLfit (IDBS) for 4-parameter nonlinear fitting analysis to provide the IC50 value for each tested compound (Table 1).

[2] = system: IL-17AF-induced IL-17 signaling pathway; assay: Inhibition of IL-17AF-induced IL-17 signaling pathway; type: cell-based; settings: Homo sapiens; IL-17AF used instead of IL-17AA; read-out: IC50 for Inhibiting IL-AF Signaling
Excerpt: as §2, §3, §1, §4
Example 44. Inhibition of IL-17AF-Induced IL-17 Signaling Pathway
The same experimental procedure to Example […] was followed where IL-17AF was used instead of IL-17AA.

| SMILES | IC50 (IL-17AA and IL-17RA) [nM] | IC50 [1] [nM] | IC50 [2] [nM] |
| --- | --- | --- | --- |
| COCC(=O)N[C@@H](c1nncn1CC1CC1)[C@@H](C)c1ccc(NC(=O)[C@@H](NC(=O)COCC2(C(F)F)COC2)C(C2CC2)C2CC2)c(F)c1 [Compound 10, (S)-3,3-dicyclopropyl-N-(4-((1R,2S)-1-(4-(cyclopropylmethyl)-4H-1,2,4-triazol-3-yl)-1-(2-methoxyacetamido)propan-2-yl)-2-fluorophenyl)-2-(2-((3-(difluoromethyl)oxetan-3-yl)methoxy)acetamido)propanamide] | 109 | 277 | 1040 |
| COCC(=O)N[C@@H](c1nncn1CC1CC1)[C@@H](C)c1ccc(NC(=O)[C@@H](NC(=O)COCC2CC2)C(C2CC2)C2CC2)c(F)c1 [Compound 15, (S)-3,3-dicyclopropyl-2-(2-(cyclopropylmethoxy)acetamido)-N-(4-((1R,2S)-1-(4-(cyclopropylmethyl)-4H-1,2,4-triazol-3-yl)-1-(2-methoxyacetamido)propan-2-yl)-2-fluorophenyl)propanamide] | 172 | 1120 | 2130 |
| CCC(=O)N[C@H](c1ncnn1CC1CC1)[C@@H](C)c1ccc(NC(=O)[C@@H](NC(=O)c2nonc2C)C(C2CC2)C2CC2)c(F)c1 [Compound 83, N-((S)-1,1-dicyclopropyl-3-((4-((1S,2S)-1-(1-(cyclopropylmethyl)-1H-1,2,4-triazol-5-yl)-1-propionamidopropan-2-yl)-2-fluorophenyl)amino)-3-oxopropan-2-yl)-4-methyl-1,2,5-oxadiazole-3-carboxamide] | 21 | 45 | 39 |
| [2H]C([2H])([2H])n1nccc1C(=O)N[C@H](C(=O)Nc1ccc([C@H](C)[C@@H](NC(=O)CO)c2ncnn2CC2CC2)cc1F)C(C1CC1)C1CC1 [Compound 69, N-((S)-1,1-dicyclopropyl-3-((4-((1R,2S)-1-(1-(cyclopropylmethyl)-1H-1,2,4-triazol-5-yl)-1-(2-hydroxyacetamido)propan-2-yl)-2-fluorophenyl)amino)-3-oxopropan-2-yl)-1-(methyl-d3)-1H-pyrazole-5-carboxamide] | 13 | 42 | 74 |
| CCC(=O)N[C@@H](c1ncnn1CC1CC1)[C@@H](C)c1ccc(NC(=O)[C@@H](NC(=O)c2ccnn2CC)C2CCC(=C(F)F)CC2)c(F)c1 (stereo partly drawn) [Compound 77, N-((S)-2-((4-((1R,2S)-1-(1-(cyclopropylmethyl)-1H-1,2,4-triazol-5-yl)-1-propionamidopropan-2-yl)-2-fluorophenyl)amino)-1-(4-(difluoromethylene)cyclohexyl)-2-oxoethyl)-1-ethyl-1H-pyrazole-5-carboxamide] | 5.6 | 11 | 32 |
| Cc1nonc1C(=O)N[C@H](C(=O)Nc1ccc([C@H](C)[C@@H](NC(=O)CO)c2ncnn2CC2CC2)cc1F)C(C1CC1)C1CC1 [Compound 57, N-((S)-1,1-dicyclopropyl-3-((4-((1R,2S)-1-(1-(cyclopropylmethyl)-1H-1,2,4-triazol-5-yl)-1-(2-hydroxyacetamido)propan-2-yl)-2-fluorophenyl)amino)-3-oxopropan-2-yl)-4-methyl-1,2,5-oxadiazole-3-carboxamide] | 6.8 | 95 | 88 |
| Cc1nonc1C(=O)N[C@H](C(=O)Nc1ccc([C@H](C)[C@@H](NC(=O)COC2CNC2)c2ncnn2CC2CC2)cc1F)C(C1CC1)C1CC1 [Compound 55, N-((S)-1-((4-((1R,2S)-1-(2-(azetidin-3-yloxy)acetamido)-1-(1-(cyclopropylmethyl)-1H-1,2,4-triazol-5-yl)propan-2-yl)-2-fluorophenyl)amino)-3,3-dicyclopropyl-1-oxopropan-2-yl)-4-methyl-1,2,5-oxadiazole-3-carboxamide] | 40 | 142 | 210 |

The next lines start with the values.

| IC50 (IL-17AA and IL-17RA) [nM] | IC50 [1] [nM] | IC50 [2] [nM] | SMILES |
| --- | --- | --- | --- |
| 11 | 6.9 | 13 | CCCn1ncnc1[C@H](NC(=O)COC)[C@@H](C)c1ccc(NC(=O)[C@@H](NC(=O)c2ccnn2CC)C(C2CC2)C2CC2)c(F)c1 [Compound 31, N-((S)-1,1-dicyclopropyl-3-((2-fluoro-4-((1R,2S)-1-(2-methoxyacetamido)-1-(1-propyl-1H-1,2,4-triazol-5-yl)propan-2-yl)phenyl)amino)-3-oxopropan-2-yl)-1-ethyl-1H-pyrazole-5-carboxamide] |
| 7.4 | 2.6 | 8.6 | CCn1nccc1C(=O)N[C@H](C(=O)Nc1ccc([C@H](C)[C@@H](NC(=O)COC)c2ncnn2CCOC)cc1F)C(C1CC1)C1CC1 [Compound 40] |
| 66 | 146 | 516 | CCn1nccc1C(=O)N[C@H](C(=O)Nc1ccc([C@H](C)[C@@H](NC(=O)COC)c2nncn2C)cc1F)C(C1CC1)C1CC1 [Compound 6, N-((S)-1,1-dicyclopropyl-3-((2-fluoro-4-((1R,2S)-1-(2-methoxyacetamido)-1-(4-methyl-4H-1,2,4-triazol-3-yl)propan-2-yl)phenyl)amino)-3-oxopropan-2-yl)-1-ethyl-1H-pyrazole-5-carboxamide] |
| 27 | 39 | 102 | CCn1nccc1C(=O)N[C@H](C(=O)Nc1ccc([C@H](C)[C@@H](NC(=O)COC)c2nccnc2OC2CC2)cc1F)C(C1CC1)C1CC1 [Compound 27, N-((S)-1-((4-((1R,2S)-1-(3-cyclopropoxypyrazin-2-yl)-1-(2-methoxyacetamido)propan-2-yl)-2-fluorophenyl)amino)-3,3-dicyclopropyl-1-oxopropan-2-yl)-1-ethyl-1H-pyrazole-5-carboxamide] |
| 3 | 3.6 | 16 | COCC(=O)N[C@@H](c1nnnn1CC1CC1)[C@@H](C)c1ccc(NC(=O)[C@@H](NC(=O)c2nonc2C)C(C2CC2)C2CC2)c(F)c1 [Compound 54, N-((S)-1,1-dicyclopropyl-3-((4-((1R,2S)-1-(1-(cyclopropylmethyl)-1H-tetrazol-5-yl)-1-(2-methoxyacetamido)propan-2-yl)-2-fluorophenyl)amino)-3-oxopropan-2-yl)-4-methyl-1,2,5-oxadiazole-3-carboxamide] |
| 23 | 42 | 98 | CCn1nccc1C(=O)N[C@H](C(=O)Nc1ccc([C@H](C)[C@@H](NC(=O)COC)c2nnc3cnccn23)cc1F)C(C1CC1)C1CC1 [Compound 88, N-((S)-1-((4-((1R,2S)-1-([1,2,4]triazolo[4,3-a]pyrazin-3-yl)-1-(2-methoxyacetamido)propan-2-yl)-2-fluorophenyl)amino)-3,3-dicyclopropyl-1-oxopropan-2-yl)-1-ethyl-1H-pyrazole-5-carboxamide] |
| 12 | 50 | 99 | CCn1nccc1C(=O)N[C@H](C(=O)Nc1ccc([C@H](C)[C@@H](NC(C)=O)c2nncn2CC2CC2)cc1F)C(C1CC1)C1CC1 [Compound 2, N-((S)-1-((4-((1R,2S)-1-acetamido-1-(4-(cyclopropylmethyl)-4H-1,2,4-triazol-3-yl)propan-2-yl)-2-fluorophenyl)amino)-3,3-dicyclopropyl-1-oxopropan-2-yl)-1-ethyl-1H-pyrazole-5-carboxamide] |
